Source: US20250041367A1, “BACTERIOPHAGES AND USE THEREOF FOR THE TREATMENT OR PREVENTION OF INFECTION CAUSED BY E. COLI” (Purdue Research Foundation, priority 2023, published 2025)

Key:
[1] = tested on: E. coli serotype O1:H23 (APEC); assay: Host range spot assay; type: cell-based, Escherichia coli; set-up: key: — indicates no lysis at all; 0.1-1.0 indicates that the phage is semi-lytic; 1.1-2.0 indicates moderate lysis of bacteria; 2.1-3.0 indicates complete lysis of bacteria and formation of a transparent, circular clearing on the bacterial lawn; conditions: E. coli serotype O1:H23, scale 0-3
Method: (§1) The host range of each bacteriophage type was determined by performing spot assays using each of the ten distinct APEC serotypes mentioned above. Spot assays were performed as known in the art (Barrow et al., 1998, Clinical and Diagnostic Laboratory Immunology, 5 (3), 294-298). 100 μL aliquots of log-phase bacterial cultures were combined with 67.5 μL 1M CaCl2) and 4 mL LB overlay, mixed briefly, and poured over LB agar plates. Once the overlay had solidified, 5 μL aliquots of individual phage types were applied (i.e., spotted) onto the plates, and plates were incubated at 37° C. overnight. Plates were assessed for clearings the following day and the degree of lysis was measured using a four-point scale in which 0 indicated no lysis, 1.0 indicated some lysis, 2.0 indicated moderate lysis, and 3 indicated complete lysis. Spot assays were conducted in triplicate for each phage and APEC strain.

[2] = tested on: E. coli serotype O1:H7 (APEC); assay: Host range spot assay; type: cell-based, Escherichia coli; set-up: key: — indicates no lysis at all; 0.1-1.0 indicates that the phage is semi-lytic; 1.1-2.0 indicates moderate lysis of bacteria; 2.1-3.0 indicates complete lysis of bacteria and formation of a transparent, circular clearing on the bacterial lawn; conditions: E. coli serotype O1:H7, scale 0-3
Method: as §1

[3] = tested on: E. coli serotype O2 (APEC); assay: Host range spot assay; type: cell-based, Escherichia coli; set-up: key: — indicates no lysis at all; 0.1-1.0 indicates that the phage is semi-lytic; 1.1-2.0 indicates moderate lysis of bacteria; 2.1-3.0 indicates complete lysis of bacteria and formation of a transparent, circular clearing on the bacterial lawn; conditions: E. coli serotype O2, scale 0-3
Method: as §1

[4] = tested on: E. coli serotype O2:H4 (APEC); assay: Host range spot assay; type: cell-based, Escherichia coli; set-up: key: — indicates no lysis at all; 0.1-1.0 indicates that the phage is semi-lytic; 1.1-2.0 indicates moderate lysis of bacteria; 2.1-3.0 indicates complete lysis of bacteria and formation of a transparent, circular clearing on the bacterial lawn; conditions: E. coli serotype O2:H4, scale 0-3
Method: as §1

[5] = tested on: E. coli serotype O6:H31 (APEC); assay: Host range spot assay; type: cell-based, Escherichia coli; set-up: key: — indicates no lysis at all; 0.1-1.0 indicates that the phage is semi-lytic; 1.1-2.0 indicates moderate lysis of bacteria; 2.1-3.0 indicates complete lysis of bacteria and formation of a transparent, circular clearing on the bacterial lawn; conditions: E. coli serotype O6:H31, scale 0-3
Method: as §1

[6] = tested on: E. coli serotype O78 (APEC); assay: Host range spot assay; type: cell-based, Escherichia coli; set-up: key: — indicates no lysis at all; 0.1-1.0 indicates that the phage is semi-lytic; 1.1-2.0 indicates moderate lysis of bacteria; 2.1-3.0 indicates complete lysis of bacteria and formation of a transparent, circular clearing on the bacterial lawn; conditions: E. coli serotype O78, scale 0-3
Method: as §1

[7] = tested on: E. coli serotype O78:H51 (APEC); assay: Host range spot assay; type: cell-based, Escherichia coli; set-up: key: — indicates no lysis at all; 0.1-1.0 indicates that the phage is semi-lytic; 1.1-2.0 indicates moderate lysis of bacteria; 2.1-3.0 indicates complete lysis of bacteria and formation of a transparent, circular clearing on the bacterial lawn; conditions: E. coli serotype O78:H51, scale 0-3
Method: as §1

[8] = tested on: E. coli serotype O78:H9 (APEC); assay: Host range spot assay; type: cell-based, Escherichia coli; set-up: key: — indicates no lysis at all; 0.1-1.0 indicates that the phage is semi-lytic; 1.1-2.0 indicates moderate lysis of bacteria; 2.1-3.0 indicates complete lysis of bacteria and formation of a transparent, circular clearing on the bacterial lawn; conditions: E. coli serotype O78:H9, scale 0-3
Method: as §1

[9] = Encapsulation efficiency in sodium alginate microcapsules (plaque assay); type: physicochemical; set-up: Pre-encapsulation phage concentration / Concentration of phages in microcapsules: unit not given here; conditions: for Pre-encapsulation phage concentration: before encapsulation; for Pre-encapsulation phage concentration / Concentration of phages in microcapsules: plaque assay; for Encapsulation efficiency: encapsulated / pre-encapsulation phage concentration; for Concentration of phages in microcapsules: sodium alginate microcapsules dissolved
Method: Bacteriophages were microencapsulated within sodium alginate microcapsules as well-known in the art with some modifications (Krasaekoopt et al., 2004, International Dairy Journal, 14 (8), 737-743). In short, sodium alginate (4 g) was mixed with 400 mL of a bacteriophage filtrate to make a 1% (w/v) suspension. This suspension was allowed to gel at room temperature for 4 hours and was then processed through a Buchi Encapsulator-B395 set at 200 Hz (frequency) and 1000V (electrode) with an aperture of 0.3 mm. The resulting microcapsules were collected in a beaker containing a hardening solution (100 mM CaCl2)) with continuous stirring to avoid clumping of microcapsules. Microcapsules were allowed to sit in the 100 mM CaCl2) solution to harden for 30 minutes and were then washed three times with SM buffer. Washed microcapsules were stored in SM buffer in 50 ml conical tubes at 4° C. until further use. Each of the six phage types was individually microencapsulated in this manner.
To assess the efficiency of microencapsulation, the concentrations of microencapsulated phages were compared to pre-encapsulation concentrations as well-known in the art (Yongsheng et al., 2008, Applied and Environmental Microbiology, 74 (15), 4799). To determine bacteriophage concentrations in microcapsules, microcapsules (0.5 g) were dried by contact with filter paper and then dissolved in 4.5 mL of dissolving solution (50 mM sodium citrate, 0.2M sodium bicarbonate, and 50 mM Tris-HCl; pH 7.5). Bacteriophage concentrations were then quantified by standard plaque assay as described previously. Encapsulation efficiency (EE %) was calculated as:
EE %=encapsulated phage concentration/pre-encapsulation phage concentration

[10] = Phage release from microcapsules in SIF after SGF; type: physicochemical; conditions: encapsulated phage; for phages released from their microcapsules: 1 hour SGF then 1 hour in SIF; for concentration of released phages: 1 hour SGF then 1 hour of incubation in SIF
Method: The extent to which phages were released from microcapsules in the intestinal environment was investigated by incubating encapsulated phages first in SGF and then in SIF. 0.5 g of microencapsulated phages (microcapsules) was added to 4.5 mL SGF in duplicate tube sets and incubated at 41° C. for 1 hour with shaking. SGF was then carefully removed via pipetting and microcapsules were combined with either 4.5 mL of SIF or 4.5 mL 1×PBS and incubated at 41° C. with shaking. Aliquots (100 μL) were collected from each sample at 1, 2, and 3 hours following exposure to SIF. The concentrations of released phages in these aliquots were determined using standard plaque assays with phages' respective host APEC serotypes. The experiment was conducted in triplicate with each phage type.

For Escherichia phage vB_Eco_AHC, the degree of lysis [1] was 1.0, the degree of lysis [2] was “—” and the degree of lysis [3] was 3.0. For the same substance, the degree of lysis [4] was “—”, the degree of lysis [5] was 2.7 and the degree of lysis [6] was 1.7. For the same substance, the degree of lysis [7] was 1.0, the degree of lysis [8] was “—” and the Pre-encapsulation phage concentration [9] was 8.9 ± 0.1. For the same substance, the Encapsulation efficiency [9] was 94.4%, the “Concentration of phages in microcapsules” value [9] was 8.4 ± 0.2 and the “phages released from their microcapsules” value [10] was 95.8%. The “concentration of released phages” value [10] was 7.99 log10 PFU/mL.

For Escherichia phage vB_Eco_AHP, the degree of lysis [1] was 3.0, the degree of lysis [2] was 3.0 and the degree of lysis [3] was “—”. For the same substance, the degree of lysis [4] was “—”, the degree of lysis [5] was 3.0 and the degree of lysis [6] was “—”. The degree of lysis [7] was “—”, the degree of lysis [8] was “—” and the Pre-encapsulation phage concentration [9] was 9.6 ± 0.1. The Encapsulation efficiency [9] was 97.9%, the “Concentration of phages in microcapsules” value [9] was 9.4 ± 0.1 and the “phages released from their microcapsules” value [10] was 97.4%. For the same substance, the “concentration of released phages” value [10] was 9.14 log10 PFU/mL.

In the case of Escherichia phage vB_Eco_AKA, the degree of lysis [1] was 1.0, the degree of lysis [2] was “—” and the degree of lysis [3] was 2.7. The degree of lysis [4] was “—”, the degree of lysis [5] was 3.0 and the degree of lysis [6] was 1.3. For the same substance, the degree of lysis [7] was 1.0, the degree of lysis [8] was “—” and the Pre-encapsulation phage concentration [9] was 8.6 ± 0.2. For the same substance, the Encapsulation efficiency [9] was 98.8%, the “Concentration of phages in microcapsules” value [9] was 8.5 ± 0.1 and the “phages released from their microcapsules” value [10] was 94.4%. For the same substance, the “concentration of released phages” value [10] was 7.99 log10 PFU/mL.

With Escherichia phage vB_Eco_MIA the degree of lysis [1] was 1.0, the degree of lysis [2] was “—” and the degree of lysis [3] was 3.0. The degree of lysis [4] was “—”, the degree of lysis [5] was 2.7 and the degree of lysis [6] was 2.0. The degree of lysis [7] was 1.0, the degree of lysis [8] was “—” and the Pre-encapsulation phage concentration [9] was 8.9 ± 0.1. The Encapsulation efficiency [9] was 95.5%, the “Concentration of phages in microcapsules” value [9] was 8.5 ± 0.1 and the “phages released from their microcapsules” value [10] was 94.7%. For the same substance, the “concentration of released phages” value [10] was 8.05 log10 PFU/mL.

In the case of Escherichia phage vB_Eco_MP_1 [MP1], the degree of lysis [1] was “—”, the degree of lysis [2] was “—” and the degree of lysis [3] was “—”. The degree of lysis [4] was 2.7, the degree of lysis [5] was “—” and the degree of lysis [6] was “—”. The degree of lysis [7] was “—”, the degree of lysis [8] was “—” and the Pre-encapsulation phage concentration [9] was 9.3 ± 0.2. For the same substance, the Encapsulation efficiency [9] was 98.9%, the “Concentration of phages in microcapsules” value [9] was 9.2 ± 0.2 and the “phages released from their microcapsules” value [10] was 96.5%. The “concentration of released phages” value [10] was 8.94 log10 PFU/mL.

In the case of Escherichia phage vB_Eco_MP_2 [MP2], the degree of lysis [1] was “—”, the degree of lysis [2] was “—” and the degree of lysis [3] was “—”. For the same substance, the degree of lysis [4] was 3.0, the degree of lysis [5] was “—” and the degree of lysis [6] was “—”. The degree of lysis [7] was “—”, the degree of lysis [8] was “—” and the Pre-encapsulation phage concentration [9] was 9.4 ± 0.1. For the same substance, the Encapsulation efficiency [9] was 98.9%, the “Concentration of phages in microcapsules” value [9] was 9.3 ± 0.2 and the “phages released from their microcapsules” value [10] was 95.4%. For the same substance, the “concentration of released phages” value [10] was 8.88 log10 PFU/mL.
